Literature values, collected in patent US20070009535A1 (priority 2005, published 2007).

Conditions: several oncolytics tested in preclinical models

Compound: O[C@@H](COc1cccc2ncccc12)CN1CCN([C@@H]2c3ccccc3[C@@H]3[C@H](c4ccccc42)C3(F)F)CC1 [zosuquidar]
- pharmacokinetic interactions with oncolytics: minimal pharmacokinetic (PK) interactions
